Legend:
HAT = HAT enzymatic activity in donor T cells from recipient spleen; format: in vivo, mouse; conditions: butyrate vs vehicle treated allogeneic animals
Description: To further determine whether the salutary effects of local treatment with butyrate on GI GVHD were dependent on donor Treg cells, a BMT was performed utilizing the same HC mismatched BMT model in which C57BL/6J (H-2b) cells are transferred to Balb/c (H-2d) mice. T cell-depleted (TCD) bone marrow was transplanted and purified CD4+CD25− T cells from donors. Vehicle or butyrate was administered to the recipients daily for 1 week, then every other day thereafter as above. […]. J. Exp. Med. 204, 57-63 (2007); Lahl, K. & Sparwasser, T. In vivo depletion of FoxP3+ Tregs using the DEREG mouse model. […]. The Treg depleted T cells were then used as donor cells in the major MHC mismatch model used above. […] To further examine whether the local administration of butyrate impacted donor T cells directly, the HDAC and HAT enzymatic activity was determined in donor T cells harvested from the recipient animals. Both the HDAC activity or HAT activity in the donor T cells harvested from the recipient spleen were similar between butyrate and vehicle treated allogeneic animals.

IECs = test: qPCR of butyrate treated IECs in vitro; format: cell-based, mouse
Description: mRNA was isolated from samples using RNeasy kit following manufacturers instructions (Qiagen; Venlo, Netherlands). Using 1 μg of each mRNA template, cDNA was synthesized using SuperScript VILO (Invitrogen; Carlsbad, Calif.). qPCR primers were designed for murine targets. All primers were verified for the production of a single specific PCR product using a melting curve program and are shown below in Table 2.
It was hypothesized that butyrate would increase anti-apoptotic genes by modulation of histone acetylation. […] It was also determined if the restored acetylation of histone H4 observed in butyrate-treated allo-BMT recipients was responsible for increased BCL-B (Bcl2110) and JAM (F11r) expression via ChIP.

[1] = system: donor T cells, Treg cells and macrophages in the intestine; test: Flow cytometry of intestinal cellular contents after allo-BMT; format: in vivo, mouse
From the text: To analyze immunophenotype surface markers, lymphocytes contained in the IEC fraction or spleen were harvested, stained using recommended dilutions indicated by manufacturer product sheets and gated on CD4-conjugated PerCP/Cy5.5 (Clone: GK1.5) or CD8-conjugated APC (Clone: 53-6.7) and configurations of the following per mouse in duplicate: CD69-PE (Clone: H1.2F3), CD62L-PE (Clone: MEL-14), CD25-PE (Clone: 3C7), CD44-PerCP/Cy5.5 (Clone: IM7), CD44-APC (Clone: IM7), FoxP3-APC (Clone: FJK-16s). Stained cells were then analyzed with an Accuri C6 Flow Cytometer (BD Biosciences). IECs were stained with CD326-conjugated APC (Clone: G8.8) and DAPI and sorted to >98% purity using a FACSAria III (BD Biosciences) gating on live cells.
The total numbers of CD45.1+ cells recovered from the intestinal lamina propria were not different between vehicle- and butyrate-treated allo-BMT recipients. By contrast, intestinal infiltration of donor CD4+ and CD8+ T cells and activated T cells (CD69+ or CD44hi) was decreased in animals that received local intragastric butyrate administration (FIG. 4a). However, the ratio of donor Treg cells to effector T cells was not different in the intestines of these animals (FIG. 4b). […] However, no difference in the total number of donor macrophages in the intestine of allogenenic recipients that were treated with either vehicle or butyrate was observed (FIG. 4c).

intestinal organoids = test: Intestinal organoid culture with butyrate; format: cell-based, mouse
Description: The potential mechanisms that contribute to butyrate-induced protection from severe GVHD were explored. Because (a) butyrate is decreased in IECs, (b) administration of butyrate mitigated GI GVHD independent of Treg cells, but (c) improved junction integrity, it was explored whether butyrate had direct effects on protecting IECs from allo-T cell mediated damage and conditioning. IECs were treated ex vivo with vehicle or butyrate for 24 hours irradiation (6 Gy) or no-irradition, followed by 24 hours of additional incubation with butyrate was performed. […] The ability of butyrate-treated IECs to withstand damage mediated by alloreactive T cells was determined by isolating and culturing primary IECs with butyrate or vehicle control, overnight. The pre-treated IECs were next co-cultured with primed allogeneic CD8+ T cells, in the absence of butyrate. […] Because butyrate is a primary energy source for IECs 1-13, it was next determined whether butyrate enhances survival and growth of IECs in vitro. To this end, intestinal organoids were cultured in the presence or absence of butyrate. […] Next, the impact of butyrate on IEC junctional function in the organoid cultures was confirmed by determining the mRNA expression of claudins (FIG. 5E).

[2] = IECs following butyrate treatment

CCCC(=O)[O-].[Na+] [butyrate, sodium butyrate]
HAT activity in donor T cells (HAT): similar
mRNA expression of JAM (F11r) (IECs; [2]): significantly increased
mRNA expression of occludin (Ocln) (IECs; [2]): significantly increased
Bakl mRNA expression (IECs; butyrate treated IECs): significantly decreased
Bax mRNA expression (IECs; butyrate treated IECs): significantly decreased
transcripts of BCL-B (Bcl2110) (IECs; butyrate treated IECs): significantly increased
ratio of donor Treg cells to effector T cells in the intestines ([1]; 21 days after allo-BMT): not different
intestinal infiltration of donor CD4+ and CD8+ T cells and activated T cells (CD69+ or CD44hi) ([1]; 21 days after allo-BMT, intragastric butyrate): decreased
total numbers of CD45.1+ cells recovered from the intestinal lamina propria ([1]; 21 days after allo-BMT, vehicle vs butyrate): not different
total number of donor macrophages in the intestine ([1]; allogeneic recipients, vehicle vs butyrate): no difference
organoid size (intestinal organoids; culture in the presence of butyrate): significantly increased
mRNA expression of claudins (Cldn1, Cldn5, Cldn6, Cldn10, Cldn11, Cldn13, Cldn14, Cldn17, Cldn18) (intestinal organoids; organoids cultured with butyrate): significantly increased

Reference: US11260083B2, “Compositions and methods for treating and preventing graft versus host disease” (The Regents of the University of Michigan, priority 2016, dated 2022)
